Read-outs that look alike come from different tables or passages of the source.

This is an account of results in patent US4968691A (priority 1986, dated 1990).

In assay [1] the target is muscarinic receptors. In kind it is binding, Hooded Lister rats. As to conditions: displacement of 0.27 nM 3H-QNB; rat cerebral cortex; 37° C., 30 min; tested as oxalate salts.
In assay [2] the target is muscarinic receptors. Put plainly: Radio ligand binding: displacement of 3H-Oxotremorine-M (muscarinic agonist) from rat cerebral cortex membranes. Also noted: species or system Hooded Lister rats. As to conditions: displacement of 2 nM 3H-OXO-M, 2 mM magnesium chloride, 37° C., 30 min, tested as oxalate salts. A general note: In a radioligand displacement assay an active substance lowers the binding of a labelled ligand.

The conditions of assay [3]: Lambrecht and Mutschler, Arzneim. forsh. 24 (11) 1725, 1974; cited from earlier work.

In the case of `Cc1noc(C2CN3CCC2CC3)n1` (racemic) [E1, (±) 3-(3-Methyl-1,2,4-oxadiazol-5-yl)-1-azabicyclo [2.2.2]octane], the IC50 at muscarinic receptors [1] turned out to be 1.84 µM; on muscarinic receptors [2], 0.015 µM.
Regarding `Cc1nc(C2CN3CCC2CC3)no1` (racemic) [E2, (±) 3-(5-Methyl-1,2,4-oxadiazol-3-yl)-1-azabicyclo [2.2.2]octane], the values for the IC50 on muscarinic receptors [1] and at muscarinic receptors [2] were 17 µM and 1.1 µM, respectively.
The corresponding values for `Cc1nnc(C2CN3CCC2CC3)o1` (racemic) [E4, (±) 3-(5-Methyl-1,3,4-oxadiazol-2-yl)-1-azabicyclo [2.2.2]octane] are 15 µM and 1 µM.
Consider `c1coc(C2CN3CCC2CC3)n1` (racemic) [E5, (±) 3-(1,3-Oxazol-2-yl)-1-azabicyclo[2.2.2]octane], for which the IC50 at muscarinic receptors [1] came out at 27 µM; on muscarinic receptors [2], 0.63 µM.
For `c1nnc(C2CN3CCC2CC3)o1` (racemic) [E8, (±) 3-(1,3,4-Oxadiazol-2-y.)-1-azabicyclo[2.2.2]octane], in that order: 63 µM and 2.8 µM.
As to `Cc1noc([C@H]2C[C@@H]3CCN(C3)C2)n1` (relative stereo) [E3, (±) exo-3-(3-Methyl-1,2,4-oxadiazol-5-yl)-1-azabicyclo [3.2.1]octane], the IC50 at muscarinic receptors [1] was 1.84 µM; at muscarinic receptors [2], 0.025 µM.
The corresponding values for `Cc1noc([C@@H]2CN3CCC[C@@H]2C3)n1` (relative stereo) [E6, (±) exo-6-(3-Methyl-1,2,4-oxadiazol-5-yl)-1-azabicyclo [3.2.1]octane] are 2.3 µM and 0.041 µM.
On to `c1coc([C@H]2C[C@@H]3CCCN(C3)C2)n1` (relative stereo) [E9, (±) exo-3-(1,3-Oxazol-2-yl 1-azabicyclo[3.3.1]nonane], for which the IC50 was found to be 3.1 µM on muscarinic receptors [1] and 0.16 µM at muscarinic receptors [2].
With `Cc1noc([C@@H]2CN3CC[C@@H]2C3)n1` (relative stereo) [E10, (±) exo-3-(3-Methyl-1,2,4-oxadiazol-5-yl)-1-azabicyclo [2.2.1]heptane], the values for the IC50 at muscarinic receptors [1] and on muscarinic receptors [2] were 1.1 µM and 0.0035 µM, respectively.
Take `COC(=O)C1CN2CCC1CC2` (stereo not shown) [3-Methoxycarbonylquinuclidine]: the cholinergic activity entry in assay [3] is “possess cholinergic activity”.

A word on the IC50: it is the concentration that inhibits the measured activity by half.
